From patent US20050163848A1 (priority 2003, published 2005)
Like-named read-outs stand apart in the source and are kept apart here.

Experiments:
colonic segments = test: Macroscopic observation of excised colonic segments for irritation; format: in vivo; conditions: rats, 4 hour after intracolonic bolus 10 mg/rat
[1] = rats; for AUC∞: time zero to infinity, based on 1 mg gabapentin/rat
[2] = rats, normalized to 1 mg gabapentin/kg
in vivo = conditions: male, Sprague-Dawley, rat, plasma
[3] = n-octanol/0.05M phosphate buffer, pH 7.4; cited from earlier work
[4] = in water and in both basic and acidic aqueous solutions; cited from earlier work

Row | SMILES | histopathological change of colonic mucosa visible to the naked eye (colonic segments) | AUC∞ ([1]; colonic intubation 10 mg/rat) | AUC∞ ([1]; iv 1 mg/rat) | absorption after intracolonic bolus ([1]; ligated colon, 10 mg/rat, FIG. 5) | AUC (0~4 h) ([2]; duodenal, dose 14.8 ± 0.1 mg/kg) | AUC (0~4 h) ([2]; duodenal, dose 30.6 ± 1.7 mg/kg) | AUC (0~4 h) ([2]; duodenal, dose 59.8 ± 1.7 mg/kg) | AUC (0~4 h) ([2]; iv, dose 1 mg/kg, hour 4 point assumes log-linear decline) | bioavailability (in vivo; iv, 1 mg/rat) | bioavailability (in vivo; other: intracolonic bolus into the ligated colon, 10 mg/rat) | log of the partition coefficient [3] | solubility [4]
1 | CCCCCCCCCCCCOS(=O)(=O)O.NCC1(CC(=O)O)CCCCC1 [gabapentin lauryl sulfate complex] | no histopathological change visible to the naked eye |  |  |  |  |  |  |  |  |  |  | 
2 | NCC1(CC(=O)O)CCCCC1 [gabapentin, 1-(aminomethyl)cyclohexaneacetic acid] | no histopathological change visible to the naked eye | 301.4 ng · h/mL-mg | 6090.3 ng · h/mL-mg | slow absorption | 1705.2 ± 257.2 ng·h/mL/mg | 1205.7 ± 276.3 ng·h/mL/mg | 726.1 ± 223.9 ng·h/mL/mg | 2727.1 ± 259.1 ng·h/mL/mg | 100% | 4.9% | −1.25 | freely soluble
